Measurements reported in publication PMC4704819, “Honey Bee Allatostatins Target Galanin/Somatostatin-Like Receptors and Modulate Learning: A Conserved Function?” (PLoS ONE, 2016).
“Also recorded” adds a separate entry of the source. Where a SMILES comes first, the peptide text is derived from it. Bridges are numbered along the chain shown (N, C = ends).

Key:
[1] = test system: honey bees (Apis mellifera); experiment: Appetitive olfactory learning (conditioning of proboscis extension reflex); format: in vivo; settings: for change of conditioned responses in last conditioning trial vs vehicle (GLM coefficient ± standard error): ~200 nl into head haemolymph 1 h before conditioning; for effect on olfactory learning performance, in words: injected into the head before conditioning, range of concentrations, vs vehicle-injected controls, Fig 9
Experimental: For behavioral experiments, bees departing from the hive (mostly foragers) were chosen as they usually show good motivation and learning ability. Each cold-anesthetized animal was introduced into a metal holder and fixed to it in order to restrain all movements of the appendages apart from those of the antennae and proboscis. Each bee was then fed with 5 μl of a sucrose solution (50% w/w in water), and its median ocellus was removed to allow injection of allatostatin into the head capsule. All bees were then placed in a dark, warm (25°C) and humidified compartment for 3 hours, before the experiments began.
(§1) The vehicle for allatostatins was a saline solution made of PBS containing the protease blocker, 1 mM PMSF (prepared from a 30mM stock solution in 100% ethanol, final concentration of ethanol 3.3%).
(§2) The allatostatins were injected into the head haemolymph after penetrating the median ocellus, either 1 hour before olfactory conditioning or sucrose responsiveness assessment, or immediately after olfactory conditioning. All injections were performed under a binocular microscope. A micromanipulator-controlled Hamilton syringe (Nanofil, equipped with a NF33BV2 needle, WPI) was used to inject approximately 200 nl of peptide solution. To make sure that the solution was properly injected, it was pushed out of the syringe so that a drop was visible and then the drop was put in contact with the haemolymph where it was quickly absorbed thanks to the respiratory movements of the bee. Any bee with excessive bleeding was discarded.
Associative conditioning of the proboscis extension reflex was used to monitor effects of allatostatin treatment on appetitive olfactory learning performance. Olfactory stimuli were prepared shortly before conditioning by inserting a small piece of filter paper soaked with 4μl of pure odorant (from Sigma-Aldrich, Lyon, France) in one of the 8 channels of a custom-made, computer-driven olfactometer (P. Arrufat, Research Center on Animal Cognition, Toulouse, France). Immediately before conditioning, the integrity of the proboscis extension reflex was checked by touching both antennae with a 50% (w/w in water) sucrose solution. Olfactory conditioning of this reflexive response was carried out following a standard protocol consisting of three paired presentations of the odor (conditioned stimulus, CS) with 50% sucrose (the unconditioned stimulus, US) separated by a 10-min interval. Each trial included a familiarization phase in which the bee was placed in the conditioning set up for 13 s before forward pairing of the CS-US. The CS (1-nonanol) was delivered to the bee through an airflow for 4 s, and the US (sucrose solution) for 3 s, with a 1 s CS-US overlap. The US was presented by gently touching the antennae to elicit the PER; as soon as the bee extended its proboscis it was allowed to lick the toothpick. This sequence was controlled by the computer-driven olfactometer.
(§3) Functional data (receptor-mediated calcium, cAMP signals and binding) were plotted and regression curves were fitted using the GraphPad Prism software (San Diego, CA). The learning data were analyzed with generalized linear effects modeling (GLM) for binomial data using the R package lme4 [67]. Response levels recorded in the last conditioning trial were used to assess the effect of treatment on learning. For 1-hour memory and generalization tests, effects of allatostatin treatment were compared for each odor tested. Generalized linear mixed effects modeling (GLMM) was also used to analyze responsiveness to sucrose, with concentration and treatment as fixed factors and the bee identity and solution presented (either sucrose or water) as random factors. […] All statistics were generated in R [68].

[2] = test system: honey bees (Apis mellifera); experiment: Olfactory generalization test; format: in vivo; settings: 1μM, injected immediately after conditioning, test 1h later, N = 66, 75, 72; for response to nonanal vs control (GLM coefficient ± standard error): ASTA p = 0.38, ASTC p = 0.41, ASTCC p = 0.30; for response to 1-hexanol vs control (GLM coefficient ± standard error): ASTA p = 0.91, ASTC p = 0.96, ASTCC p = 0.56; for response to 1-nonanol (CS) vs control (GLM coefficient ± standard error): ASTA p = 0.96, ASTC p = 0.37, ASTCC p = 0.10
Experimental: as §1, §2
Bees that learned to respond to the conditioned stimulus (CS) at the end of conditioning were submitted to a generalization test 1h later. In addition to 1-nonanol (the CS), two novel odorants (nonanal and 1-hexanol) were presented: these were selected according to their respective high and low levels of perceptual similarity with 1-nonanol. All odorants were presented without reinforcement with sucrose. The order of odorant presentations varied across individuals, and the integrity of the reflexive response to sucrose was checked at the end of the test.
as §3

[3] = 10^-6M, ASTA p<0.01, ASTC p<0.05, ASTCC p<0.001

Structure (SMILES): CC(C)[C@@H]1NC(=O)[C@H](C)NC(=O)[C@H](CC(N)=O)NC(=O)[C@H](Cc2ccccc2)NC(=O)[C@H](Cc2ccc(O)cc2)NC(=O)[C@@H](NC(=O)[C@H](CCCNC(=N)N)NC(=O)[C@H](Cc2c[nH]c3ccccc23)NC(=O)[C@H](Cc2ccc(O)cc2)NC(=O)[C@@H](NC(=O)[C@H](CCCNC(=N)N)NC(=O)CNC(=O)[C@H](CCCCN)NC(=O)[C@H](C)NC(=O)[C@H](CCC(N)=O)NC(=O)CN)C(C)C)CSSC[C@@H](C(=O)N[C@@H](Cc2ccccc2)C(=O)O)NC(=O)[C@H]([C@@H](C)O)NC1=O [Apime-ASTCC] (H-GQAKGRVYWRCYFNAVTCF-OH; disulfide 11-18; N-terminus assumed)
- change of conditioned responses in last conditioning trial vs vehicle (GLM coefficient ± standard error) ([1]; 10^-3M, ASTCC p<0.05): -1.04±0.45
- change of conditioned responses in last conditioning trial vs vehicle (GLM coefficient ± standard error) ([1]; 10^-4M, ASTA p<0.01, ASTCC p<0.01): -1.35±0.44
- change of conditioned responses in last conditioning trial vs vehicle (GLM coefficient ± standard error) [1, 3]: -1.75±0.43
- change of conditioned responses in last conditioning trial vs vehicle (GLM coefficient ± standard error) ([1]; 10^-7M, ASTCC p<0.001): -1.59±0.44
- effect on olfactory learning performance, in words [1]: the effects of each peptide were dose-dependent
- effect on olfactory learning performance, in words ([1]; listed as ASTCC): apparent at much lower doses than effects of ASTC; also recorded: significant, dose-dependent (yet not linear) decrease in the percentage of bees that learned
- response to nonanal vs control (GLM coefficient ± standard error) [2]: 0.37±0.36
- response to 1-hexanol vs control (GLM coefficient ± standard error) [2]: 0.20±0.34
- response to 1-nonanol (CS) vs control (GLM coefficient ± standard error) [2]: 0.71±0.44

Structure (SMILES): CC(C)[C@@H]1NC(=O)[C@H](C)NC(=O)[C@H](CC(N)=O)NC(=O)[C@H](Cc2ccccc2)NC(=O)[C@H](C)NC(=O)[C@@H](NC(=O)[C@H](CCC(N)=O)NC(=O)[C@H](CCCCN)NC(=O)[C@H](Cc2c[nH]c3ccccc23)NC(=O)[C@H](Cc2ccc(O)cc2)NC(=O)[C@@H](N)CO)CSSC[C@@H](C(=O)N[C@@H](Cc2ccccc2)C(N)=O)NC(=O)[C@H](CO)NC1=O [Apime-ASTC] (H-SYWKQCAFNAVSCF-NH2; disulfide 6-13; N-terminus assumed)
- change of conditioned responses in last conditioning trial vs vehicle (GLM coefficient ± standard error) ([1]; 10^-5M, ASTA p<0.05, ASTC p<0.05): -0.84±0.42
- change of conditioned responses in last conditioning trial vs vehicle (GLM coefficient ± standard error) [1, 3]: -0.91±0.41
- effect on olfactory learning performance, in words [1]: the effects of each peptide were dose-dependent
- effect on olfactory learning performance, in words ([1]; listed as ASTC): significant, dose-dependent (yet not linear) decrease in the percentage of bees that learned
- response to nonanal vs control (GLM coefficient ± standard error) [2]: 0.29±0.36
- response to 1-hexanol vs control (GLM coefficient ± standard error) [2]: 0.01±0.34
- response to 1-nonanol (CS) vs control (GLM coefficient ± standard error) [2]: 0.35±0.40
